Assay results published in PubChem BioAssay (NCI).
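Here, GI50 denotes the concentration required for 50% inhibition of growth. TGI: total growth inhibition.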

Key:
Experiment in all cases: NCI-60 cell line screen, 384-well format
U251 glioblastoma = tested on: U251 glioblastoma
LOX IMVI melanoma = tested on: LOX IMVI melanoma
MDA-MB-231 breast = tested on: MDA-MB-231 breast
SF-268 CNS = tested on: SF-268 CNS
UO-31 renal = tested on: UO-31 renal
A549 NSCLC = tested on: A549 NSCLC
HS 578T breast = tested on: HS 578T breast
K-562 leukemia = tested on: K-562 leukemia
SR leukemia = tested on: SR leukemia
HOP-62 NSCLC = tested on: HOP-62 NSCLC
SK-MEL-2 melanoma = tested on: SK-MEL-2 melanoma
OVCAR-3 ovarian = tested on: OVCAR-3 ovarian
TK-10 renal = tested on: TK-10 renal
NCI-H460 NSCLC = tested on: NCI-H460 NSCLC
SN12C renal = tested on: SN12C renal
SK-MEL-5 melanoma = tested on: SK-MEL-5 melanoma
CCRF-CEM leukemia = tested on: CCRF-CEM leukemia
HT29 colon = tested on: HT29 colon
MDA-MB-435 melanoma = tested on: MDA-MB-435 melanoma
IGROV1 ovarian = tested on: IGROV1 ovarian
UACC-62 melanoma = tested on: UACC-62 melanoma
M14 melanoma = tested on: M14 melanoma
NCI/ADR-RES ovarian = tested on: NCI/ADR-RES ovarian
CAKI-1 renal = tested on: CAKI-1 renal
MDA-MB-468 breast = tested on: MDA-MB-468 breast
HL-60(TB) leukemia = tested on: HL-60(TB) leukemia
SF-539 CNS = tested on: SF-539 CNS
OVCAR-8 ovarian = tested on: OVCAR-8 ovarian
MALME-3M melanoma = tested on: MALME-3M melanoma
EKVX NSCLC = tested on: EKVX NSCLC
786-0 renal = tested on: 786-0 renal
NCI-H322M lung = tested on: NCI-H322M lung
SK-MEL-28 melanoma = tested on: SK-MEL-28 melanoma
OVCAR-4 ovarian = tested on: OVCAR-4 ovarian
DU-145 prostate = tested on: DU-145 prostate
UACC-257 melanoma = tested on: UACC-257 melanoma
SW-620 colon = tested on: SW-620 colon
RPMI-8226 leukemia = tested on: RPMI-8226 leukemia
BT-549 breast = tested on: BT-549 breast
ACHN renal = tested on: ACHN renal
SF-295 CNS = tested on: SF-295 CNS
HCT-116 colon = tested on: HCT-116 colon
KM12 colon = tested on: KM12 colon
RXF 393 renal = tested on: RXF 393 renal
MCF7 breast = tested on: MCF7 breast
HCC-2998 colon = tested on: HCC-2998 colon
HOP-92 NSCLC = tested on: HOP-92 NSCLC

O=C(Nc1cccc(NS(=O)(=O)c2ccc(F)cc2)c1)c1ccc(-c2ccccc2)cc1 gave a GI50 (U251 glioblastoma) of 2.35 µM, a TGI (U251 glioblastoma) of 5.72 µM and a GI50 (LOX IMVI melanoma) of 3.31 µM. For the same compound, the TGI (LOX IMVI melanoma) was 11.4 µM, the GI50 (MDA-MB-231 breast) was 3.72 µM and the TGI (MDA-MB-231 breast) was 18.3 µM. For the same compound, the GI50 (SF-268 CNS) was 3.93 µM, the TGI (SF-268 CNS) was 17.2 µM and the GI50 (UO-31 renal) was 3.59 µM. The TGI (UO-31 renal) was 13.5 µM, the GI50 (A549 NSCLC) was 4.07 µM and the TGI (A549 NSCLC) was greater than 100 µM. For the same compound, the GI50 (HS 578T breast) was 3.7 µM, the TGI (HS 578T breast) was 15.3 µM and the GI50 (K-562 leukemia) was 2.6 µM. The TGI (K-562 leukemia) was 11.2 µM, the GI50 (SR leukemia) was 1.76 µM and the TGI (SR leukemia) was 3.31 µM. It also gave a GI50 (HOP-62 NSCLC) of 3.85 µM, a TGI (HOP-62 NSCLC) of 11.6 µM and a GI50 (SK-MEL-2 melanoma) of 12.9 µM. For the same compound, the TGI (SK-MEL-2 melanoma) was 26.3 µM, the GI50 (OVCAR-3 ovarian) was 7.05 µM and the TGI (OVCAR-3 ovarian) was 20 µM. It also gave a GI50 (TK-10 renal) of 4.17 µM, a TGI (TK-10 renal) of 19.2 µM and a GI50 (NCI-H460 NSCLC) of 3.23 µM. For the same compound, the TGI (NCI-H460 NSCLC) was 10.4 µM, the GI50 (SN12C renal) was 3.45 µM and the TGI (SN12C renal) was 11.8 µM. The GI50 (SK-MEL-5 melanoma) was 2.56 µM, the TGI (SK-MEL-5 melanoma) was 7.94 µM and the GI50 (CCRF-CEM leukemia) was 2.33 µM. The TGI (CCRF-CEM leukemia) was 5.8 µM, the GI50 (HT29 colon) was 4.49 µM and the TGI (HT29 colon) was 21.5 µM. It also gave a GI50 (MDA-MB-435 melanoma) of 4.59 µM, a TGI (MDA-MB-435 melanoma) of 17.1 µM and a GI50 (IGROV1 ovarian) of 10.4 µM. It also gave a TGI (IGROV1 ovarian) of 37.1 µM, a GI50 (UACC-62 melanoma) of 3.38 µM and a TGI (UACC-62 melanoma) of 15 µM. For the same compound, the GI50 (M14 melanoma) was 6.38 µM, the TGI (M14 melanoma) was 19.5 µM and the GI50 (NCI/ADR-RES ovarian) was 2.55 µM. The TGI (NCI/ADR-RES ovarian) was 9.38 µM, the GI50 (CAKI-1 renal) was 5.85 µM and the TGI (CAKI-1 renal) was 26.6 µM. For the same compound, the GI50 (MDA-MB-468 breast) was 3.1 µM, the TGI (MDA-MB-468 breast) was 8.43 µM and the GI50 (HL-60(TB) leukemia) was 1.73 µM. It also gave a TGI (HL-60(TB) leukemia) of 3.46 µM, a GI50 (SF-539 CNS) of 3.17 µM and a TGI (SF-539 CNS) of 11.1 µM. The GI50 (OVCAR-8 ovarian) was 3.57 µM, the TGI (OVCAR-8 ovarian) was 13.3 µM and the GI50 (MALME-3M melanoma) was 4.23 µM. The TGI (MALME-3M melanoma) was 17.4 µM, the GI50 (EKVX NSCLC) was 3.09 µM and the TGI (EKVX NSCLC) was 12.3 µM. For the same compound, the GI50 ([…]-0 renal) was 2.95 µM, the TGI (786-0 renal) was 10.6 µM and the GI50 (NCI-H322M lung) was 3.9 µM. It also gave a TGI (NCI-H322M lung) of 19.7 µM, a GI50 (SK-MEL-28 melanoma) of 17.1 µM and a TGI (SK-MEL-28 melanoma) of 38.5 µM. For the same compound, the GI50 (OVCAR-4 ovarian) was 3.85 µM, the TGI (OVCAR-4 ovarian) was 18.2 µM and the GI50 (DU-145 prostate) was 4.44 µM. The TGI (DU-145 prostate) was 26.5 µM, the GI50 (UACC-257 melanoma) was 4.02 µM and the TGI (UACC-257 melanoma) was 16.7 µM. The GI50 (SW-620 colon) was 4.54 µM, the TGI (SW-620 colon) was 16.2 µM and the GI50 (RPMI-8226 leukemia) was 1.47 µM. It also gave a TGI (RPMI-8226 leukemia) of 3.75 µM, a GI50 (BT-549 breast) of 2.89 µM and a TGI (BT-549 breast) of 8.64 µM. For the same compound, the GI50 (ACHN renal) was 4.13 µM, the TGI (ACHN renal) was 21.6 µM and the GI50 (SF-295 CNS) was 2.79 µM. The TGI (SF-295 CNS) was 10.1 µM, the GI50 (HCT-116 colon) was 3.54 µM and the TGI (HCT-116 colon) was 12.6 µM. The GI50 (KM12 colon) was 3.62 µM, the TGI (KM12 colon) was 13.2 µM and the GI50 (RXF 393 renal) was 2.02 µM. It also gave a TGI (RXF 393 renal) of 4.91 µM, a GI50 (MCF7 breast) of 4.23 µM and a TGI (MCF7 breast) of 14.4 µM. It also gave a GI50 (HCC-2998 colon) of 6.02 µM, a TGI (HCC-2998 colon) of 21.2 µM and a GI50 (HOP-92 NSCLC) of 2.94 µM. The TGI (HOP-92 NSCLC) was 8.32 µM.
